“Also recorded” adds a separate entry of the source.
Experiments:
[1] = tested on: CD63-Tluc-CD9-EmGFP THP-1 reporter cells; assay: CD63 Tluc-CD9 EmGFP THP-1 reporter cell assay (EV/exosome release); format: cell-based, human; settings: 634 analogs 10 μM, 48 hours
Procedure: (§1) All these analogs were evaluated for induction of IL-12 cytokine at 10 μM, followed by dose response IL-12 induction for selected analogs. These analogs were also evaluated for exosome release by quantitating EV release in the supernatant post 48 hours incubation with CD63-Tluc-CD9-EmGFP THP-1 reporter cells.
In the HTS using CD63-Tluc-CD9EmGFP reporter cells (CD63 HTS), PMA (10 ng/ml) was used as a positive control (Shpigelman et al., 2021) and 0.5% DMSO was used as negative control (vehicle, Veh). Briefly, the harvested cells were resuspended in assay media containing 10% exosome-depleted […] (#A2720801, Thermo Fisher Scientific) and plated at 2×10^5 cells/mL (50 μL/well of 384-well plates) (#3674, Corning). Test compounds were added at a final concentration of 10 μM to cells and incubated for 48 hours at 37° C. Subsequently, the plate was centrifuged, supernatant (25 μL) was transferred, and chemiluminescent was measured as recombinant luciferase activity (RLU) after 10 minutes incubation with TurboLuc assay reagent (TurboLuc™ One-Step Glow Assay kit, Thermo Fisher Scientific). The response that measures activation and subsequent release of EVs was calculated using the following formula; % response=100×(compound RLU−average Veh RLU)/(average PMA RLU−average Veh RLU). The viability of cells was assessed using PrestoBlue reagent (Thermo Fisher Scientific). Briefly, PrestoBlue reagent (2.5 μl) was added to the remaining cells and incubated for 30 minutes at room temperature, followed by fluorescence readout at (Ex 560 nm/Em 590 nm) which was normalized to fluorescence data of the Veh wells within the plate to obtain “% viability” calculated as 100×(compound fluorescence/average Veh fluorescence).
CD63 Tluc-CD9 EmGFP THP-1 reporter cell assay. CD63 Tluc CD9 EmGFP THP-1 reporter cell (designated as CD63 Tluc reporter cells) were incubated with 10 μM test compounds, ION (1 μM), or 0.5% DMSO (negative control) in the RPMI 1640 supplemented with exosome-depleted FBS at 5×10^4 cells in 200 μL/well for a 96-well plate for 48 hours at 37° C. Subsequently, the plate was centrifuged, the supernatant was transferred, and chemiluminescence was measured by TurboLuc™ Luciferase One-Step Glow Assay Kit. The response that measures activation and subsequent release of EVs was calculated using the following formula; % response=100×(compound RLU−average Veh RLU)/(average PMA RLU−average Veh RLU).

[2] = tested on: mBMDCs; assay: Intracellular Ca2+ influx (Fura-2/Fura-8) in mBMDCs; format: cell-based, mouse; settings: 10 μM, vs Veh 0.5% DMSO / #634
[3] = tested on: TLR4; assay: TLR4 agonism in murine and human HEK-TLR4 reporter cells; format: cell-based
From the text: FIG. 37. TLR4 agonism assays with analogs of 2B182c in human and murine TLR4 reporter cells.

[4] = tested on: mBMDCs; assay: Cell viability / cytotoxicity in mBMDCs (MTT); format: cell-based, mouse; settings: for toxicity in exosome-depleted FBS medium: mBMDCs, 10 μM, 48 hours, MTT; for cytotoxicity of Ca influx inhibitors / chelators in mBMDC culture: 48 hours culture
Procedure: FIGS. 30A-30B. […] After 48 hours incubation, cell viability was determined by MTT assay.
mBMDCs (10^5 cells/200 μL/well) were treated with 10 and 5 μM of a test compound in 96-well plates overnight. After 18 hours of drug treatment, MTT (0.5 mg/ml) was added to each well. The cells were lysed after 6-8 hours incubation, and absorbance values at 570 and 650 nm were measured. PrestoBlue reagent (#A13261, Thermo Fisher Scientific) was used for cell viability assay in CD63 HTS as described earlier.
Cell viability assay. mBMDCs (2×10^6 cells/200 μL/well in RPMI1640 supplemented with dialyzed 10% FBS, or 1.5×10^6 cells/200 μL/well in RPMI1640 supplemented with 10% exosome depleted FBS) were treated with 10 μM of each test compound in 96-well plates. After 46-48 hours of compound treatment, MTT (0.5 mg/mL) was added to each well. The cells were lysed after overnight incubation, and absorbance values at 570 and 650 nm were measured.

[5] = tested on: mBMDCs; assay: IL-12 induction in mBMDCs (ELISA); format: cell-based, mouse; settings: 10 μM / dose response
Procedure: as §1
mBMDCs (10^5 cells/200 μL/well) were plated in wells of 96-well plates and treated with test compound (5 μM or 10 μM) or vehicle (0.5% DMSO) overnight.

[6] = tested on: mBMDCs; assay: EV release from mBMDCs (differential ultracentrifugation, MRPS); settings: 10 μM, 46-48 h, vs Veh

Row | SMILES | intracellular Ca^2+ influx by 634 and its SAR analogs (Fura-2) [2] | TLR4 agonistic activity [3] | also measured
1 | CCNC(=O)c1c(NS(=O)(=O)c2cccc3c2N=S=N3)sc(C)c1C [2E241, 2-(benzo[c][1,2,5]thiadiazole-4-sulfonamido)-N-ethyl-4,5-dimethylthiophene-3-carboxamide] | loss of potency; also recorded: did not induce Ca^2+ influx in mBMDCs; also recorded: negative |  | luciferase activities in the culture supernatant of CD63 Tluc reporter cells [1]: did neither increase luciferase activities
2 | Cn1c2ccc(-c3ccco3)cc2c2nc(SCC(=O)NC3CCCCC3)n(-c3ccc(O)c(O)c3)c(=O)c21 [2E255] |  | completely inactive | 
3 | CCOC(=O)c1c(N(C)S(=O)(=O)c2cccc3c2N=S=N3)sc(C)c1C [2F186, Ethyl 4,5-dimethyl-2-(N-methylbenzo[c][1,2,5]thiadiazole-4-sulfonamido)thiophene-3-carboxylate] | did not induce Ca^2+ influx in mBMDCs; also recorded: negative |  | luciferase activities in the culture supernatant of CD63 Tluc reporter cells [1]: did neither increase luciferase activities
4 | Cn1c2ccc(-c3ccco3)cc2c2nc(SCC(=O)NC3CCCCC3)n(-c3cccc(N)c3)c(=O)c21 [2G023a] |  | equipotent to compound 28182c | 
5 | Cn1c2ccc(-c3ccco3)cc2c2nc(SCC(=O)NC3CCCCC3)n(-c3cccc(O)c3)c(=O)c21 [2G053] |  | equipotent to compound 28182c | 
6 | CC(=O)Oc1cccc(-n2c(SCC(=O)NC3CCCCC3)nc3c4cc(-c5ccco5)ccc4n(C)c3c2=O)c1 [2G107] |  | potent | 
7 | CCCCCCCCC(=O)Oc1cccc(-n2c(SCC(=O)NC3CCCCC3)nc3c4cc(-c5ccco5)ccc4n(C)c3c2=O)c1 [2G108] |  | potent | 
8 | CC(=O)Nc1cccc(-n2c(SCC(=O)NC3CCCCC3)nc3c4cc(-c5ccco5)ccc4n(C)c3c2=O)c1 [2G112] |  | did not retain equal potency | 
9 | CCCCCCCCC(=O)Nc1cccc(-n2c(SCC(=O)NC3CCCCC3)nc3c4cc(-c5ccco5)ccc4n(C)c3c2=O)c1 [2G113] |  | did not retain equal potency | 
10 | CCCOC(=O)c1c(NS(=O)(=O)c2cccc3c2N=S=N3)sc(C)c1C [2G176, Propyl 2-(benzo[c][1,2,5]thiadiazole-4-sulfonamido)-4,5-dimethylthiophene-3-carboxylate] | Ca^2+ influx positive |  | 
11 | CCCCCCCC/C=C\CCCCCCCC(=O)OC[C@H](COP(=O)(O)OCCNC(=O)CCCC(=O)Oc1cccc(-n2c(SCC(=O)NC3CCCCC3)nc3c4cc(-c5ccco5)ccc4n(C)c3c2=O)c1)OC(=O)CCCCC/C=C\CCCCCCCC [2G177] |  | slightly less potent than 2G053; also recorded: the potency at the highest concentration was better | 
12 | Cc1sc(NS(=O)(=O)c2cccc3nsnc23)c(C(=O)OC(C)(C)C)c1C [2G179 h, Tert-butyl 2-(benzo[c][1,2,5]thiadiazole-4-sulfonamido)-4,5-dimethylthiophene-3-carboxylate] |  |  | toxicity in exosome-depleted FBS medium [4]: higher toxicity
13 | COC(=O)c1c(NS(=O)(=O)c2cccc3c2N=S=N3)sc(C)c1C [2G179a, Methyl 2-(benzo[c][1,2,5]thiadiazole-4-sulfonamido)-4,5-dimethylthiophene-3-carboxylate] | Ca^2+ influx positive |  | 
14 | CCCCCCOC(=O)c1c(NS(=O)(=O)c2cccc3nsnc23)sc(C)c1C [2G179b, Hexyl 2-(benzo[c][1,2,5]thiadiazole-4-sulfonamido)-4,5-dimethylthiophene-3-carboxylate] | increased intracellular Ca^2+ levels more than that of #634 |  | toxicity in exosome-depleted FBS medium [4]: higher toxicity
15 | Cc1sc(NS(=O)(=O)c2cccc3c2N=S=N3)c(C(=O)OC(C)C)c1C [2G179c, Isopropyl 2-(benzo[c][1,2,5]thiadiazole-4-sulfonamido)-4,5-dimethylthiophene-3-carboxylate] | increased intracellular Ca^2+ levels more than that of #634; also recorded: Ca^2+ influx positive |  | 
16 | Cc1sc(NS(=O)(=O)c2cccc3nsnc23)c(C(=O)OCCC(C)C)c1C [2G179d, Isopentyl 2-(benzo[c][1,2,5]thiadiazole-4-sulfonamido)-4,5-dimethylthiophene-3-carboxylate] | increased intracellular Ca^2+ levels more than that of #634 |  | toxicity in exosome-depleted FBS medium [4]: higher toxicity
17 | Cc1sc(NS(=O)(=O)c2cccc3nsnc23)c(C(=O)OC2CCCCC2)c1C [2G179e, Cyclohexyl 2-(benzo[c][1,2,5]thiadiazole-4-sulfonamido)-4,5-dimethylthiophene-3-carboxylate] |  |  | toxicity in exosome-depleted FBS medium [4]: higher toxicity
18 | Cc1sc(NS(=O)(=O)c2cccc3nsnc23)c(C(=O)OCc2ccccc2)c1C [2G179f, Benzyl 2-(benzo[c][1,2,5]thiadiazole-4-sulfonamido)-4,5-dimethylthiophene-3-carboxylate] |  |  | toxicity in exosome-depleted FBS medium [4]: higher toxicity
19 | Cc1sc(NS(=O)(=O)c2cccc3nsnc23)c(C(=O)Oc2ccccc2)c1C [2G179g, Phenyl 2-(benzo[c][1,2,5]thiadiazole-4-sulfonamido)-4,5-dimethylthiophene-3-carboxylate] | lost potency; also recorded: Ca^2+ influx positive |  | 
20 | Cc1cc(NS(=O)(=O)c2cccc3nsnc23)sc1C [2G182] | loss of potency |  | 
21 | Cn1c2ccc(-c3ccco3)cc2c2nc(SCC(=O)NC3CCCCC3)n(-c3cccc(OCOP(=O)(O)O)c3)c(=O)c21 [2G202] |  | weakly active | 
22 | Cc1sc(NS(=O)(=O)c2cccc3nsnc23)c(C(=O)O)c1C [2H013, 2-(benzo[c][1,2,5]thiadiazole-4-sulfonamido)-4,5-dimethylthiophene-3-carboxylic acid] | did not induce Ca^2+ influx in mBMDCs; also recorded: negative |  | luciferase activities in the culture supernatant of CD63 Tluc reporter cells [1]: did neither increase luciferase activities
23 | c1ccc(-c2cn(-c3cncc(-c4cccs4)c3)nn2)cc1 [2H050] |  |  | IL-12 induction [5]: significantly enhanced cytokine IL-12 induction
24 | COc1ccc(-c2nnc(-c3cccnc3)o2)cc1OC [#1310] |  |  | IL-12 induction [5]: as potent as #645
25 | Clc1ccc(-c2nnc(-c3cccnc3)o2)cc1 [#1311] |  |  | IL-12 induction [5]: as potent as #645
26 | CC(=O)OCOC(=O)CN(CC(=O)OCOC(C)=O)c1ccccc1OCCOc1ccccc1N(CC(=O)OCOC(C)=O)CC(=O)OCOC(C)=O [BAPTA-AM, reference compound] |  |  | number of EV particles released in the culture supernatant [6]: increased EV release by mBMDC; also recorded: enhanced particle release from dead and dying cells; cytotoxicity of Ca influx inhibitors / chelators in mBMDC culture [4]: cytotoxic; also recorded: toxic
27 | Cc1nnsc1C(=O)Nc1ccc(-n2nc(C(F)(F)F)cc2C(F)(F)F)cc1 [BTP2, reference compound] |  |  | number of EV particles released in the culture supernatant [6]: increased EV release by mBMDC; cytotoxicity of Ca influx inhibitors / chelators in mBMDC culture [4]: cytotoxic
28 | O=C(O)CN(CCOCCOCCN(CC(=O)O)CC(=O)O)CC(=O)O [EGTA, reference compound] |  |  | number of EV particles released in the culture supernatant [6]: increased EV release by mBMDC; also recorded: enhanced particle release from dead and dying cells; cytotoxicity of Ca influx inhibitors / chelators in mBMDC culture [4]: cytotoxic; also recorded: toxic
